The values that follow come from patent US20150307519A1, “SMALL MOLECULES FOR RESTORING FUNCTION TO P53 CANCER MUTANTS” (THE REGENTS OF THE UNIVERSITY OF CALIFORNIA, priority 2014, published 2015).

Data set [1] has as its system Saos-2 cells expressing p53^G245S. Nature of the data set: Cell count / viability of Saos-2 cells with doxycyclin-inducible p53 G245S. The class given is cell-based. Conditions: FIGS. 5A-5C; for p53 G245S-dependent cancer cell cytotoxicity: 27 hours. From the text: ACS chemical biology, doi:10.1021/cb3005929 (2013).
The target of data set [2] is T1, WT DBD (wild-type p53 DBD protein) (Homo sapiens, UniProt P04637).
T1 construct: wild-type p53 protein DBD protein (residues 94-312 of the full length); made in house; host or cells: Escherichia coli Rosetta 2 (DE3), vector pSE420
As to the kind of experiment: DSF thermal stabilization of WT DBD. The format is binding. The settings on record: DSF assay. How it is done: (§1) To determine whether this stabilization was specific for copper, NSC319725 was also tested after addition of Fe(II)Cl2 and ZnCl2. […] NSC635448, […] were also tested for stabilization of G245S DBD and WT DBD in the DSF assay, yielding analogous results.
(§2) An equivalent volume of DMSO was used as a control. […] Sypro Orange stain (Bio-Rad, Hercules, Calif.) at 5,000× stock concentration was diluted to 5× concentration in 20 mM HEPES at pH 7.4 and added to each well of a 96-well plate. All SLS compounds were independently measured for fluorescence background to eliminate false positive results. […] All DSF assays were performed with a Touch RT-PCR system CFX96 (Bio-Rad) with the starting temperature of 4° C. by increasing the temperature of the plate 1.0° C. per min to 94° C. Fluorescence measurements were taken once every minute during all experiments. Tm values for each well, mean Tm values, and 95% confidence intervals were calculated with the program Prism 5 (GraphPad Software, La Jolla, Calif.) by fitting the raw fluorescence data to a Boltzmann sigmoidal curve.

The target of another data set is T2, G245S DBD (Homo sapiens, UniProt P04637, G245S).
T2 construct: wild-type p53 protein DBD protein (residues 94-312 of the full length)
As to the kind of experiment: DSF thermal stabilization of G245S DBD. The class given is binding. Conditions: DSF assay. How it is done: as §1, §2

In the case of `Cn1ncc2c(Nc3ccc(Br)cc3)nc(Nc3ccc(Br)cc3)nc21` [NSC11667], in data set [1], the “reactivation of p53^G245S in cells” value is reported as “marked efficacy”.
On to `C/C(=N\NC(=S)N(C)C)c1ccccn1` [NSC319725, reference compound], for which the “effect on Tm of WT DBD (qualitative)” value in data set [2] was “no effect or a slight destabilization”. The “effect on Tm of G245S DBD (qualitative)” value on G245S DBD was “no effect or a slight destabilization”. Further, in data set [1], the “p53 G245S-dependent cancer cell cytotoxicity” value is “marked”.
With `NS(=O)(=O)c1nc2nc[nH]c(=O)c2[nH]1` [NSC635448], the “effect on Tm of WT DBD (qualitative)” value in data set [2] is “increased the Tm”. Moreover, on G245S DBD, the “effect on Tm of G245S DBD (qualitative)” value is on record as “increased the Tm”. For the same compound, in data set [1], the “p53 G245S-dependent cancer cell cytotoxicity” value is “marked” and the “reactivation of p53^G245S in cells” value was “marked efficacy”.
